# Literature values, collected in patent US20030212138A1, “Combinations of peroxisome proliferator-activated receptor-alpha agonists and cyclooxygenase-2 selective inhibitors and therapeutic uses therefor” (Pharmacia Corporation, priority 2002, published 2003).
# System: fibroblast growth factor-induced corneal angiogenesis
# Settings: rats; Masferrer et al. 1999
structure (smiles),measurement,value
"Cc1ccc(-c2cc(C(F)(F)F)nn2-c2ccc(S(N)(=O)=O)cc2)cc1 [Celecoxib®, 4-[5-(4-methylphenyl)-3-(trifluoromethyl)-1H-pyrazol-1-yl]benzenesulfonamide]",inhibition of fibroblast growth factor-induced corneal angiogenesis,potent inhibition
